Values after ≈ are worked out from the molar mass of the structure shown. Like-named read-outs stand apart in the source and are kept apart here.
Columns and labels:
Assay type in all cases: cell-based
[1] = tested on: Pseudomonas aeruginosa PST1; assay: Minimum inhibitory concentration, serial dilution on nutrient agar; conditions: PST1, nutrient agar, 37° C., 18 hours incubation, read-out: MIC
[2] = tested on: Pseudomonas aeruginosa TI-13; assay: as above; conditions: TI13, 18 h
[3] = tested on: Escherichia coli K-12; assay: as above; conditions: K12, nutrient agar, 37° C., 18 hours incubation, read-out: MIC
[4] = tested on: Pseudomonas aeruginosa A3; assay: as above; conditions: 37° C., 18 hours incubation
[5] = tested on: Pseudomonas aeruginosa H9; assay: as above; conditions: H9, 18 h
[6] = tested on: Bacillus subtilis PCI 219; assay: as above; conditions: PCI219, 37° C., 18 hours incubation
[7] = tested on: Escherichia coli K-12 ML 1410; assay: as above
[8] = tested on: Escherichia coli NIHJ; assay: as above; conditions: nutrient agar, 37° C., 18 hours incubation, read-out: MIC
[9] = tested on: Serratia SOU; assay: as above; conditions: 37° C., 18 hours incubation
[10] = tested on: Proteus vulgaris OX19; assay: as above; conditions: 37° C., 18 hours incubation
[11] = tested on: Sarcina lutea PCI 1001; assay: as above; conditions: Micrococcus luteus, PCI1001; nutrient agar, 37° C., 18 hours incubation; read-out: MIC
[12] = tested on: Serratia 4; assay: as above; conditions: 37° C., 18 hours incubation
[13] = tested on: Providencia Pv 16; assay: as above; conditions: PV16, 37° C., 18 hours incubation
[14] = tested on: Shigella dysenteriae JS 11910; assay: as above; conditions: JS11910, 18 h
[15] = tested on: Salmonella typhi T-63; assay: as above; conditions: Salmonella enterica, 18 h
[16] = tested on: Staphylococcus epidermidis 109; assay: as above; conditions: Staphylococcus epidermidis, 109; nutrient agar, 37° C., 18 hours incubation; read-out: MIC
[17] = tested on: Escherichia coli K-12 LA 290 R56; assay: as above; conditions: K12LA290R56, 18 h
[18] = tested on: Staphylococcus aureus AP01; assay: as above; conditions: 37° C., 18 hours incubation
[19] = tested on: Pseudomonas aeruginosa 99; assay: as above
[20] = tested on: Staphylococcus aureus Smith; assay: as above; conditions: 37° C., 18 hours incubation
[21] = tested on: Bacillus anthracis; assay: microbe, parasite or virus in culture; conditions: 18 h
[22] = tested on: Pseudomonas aeruginosa H11; assay: Minimum inhibitory concentration, serial dilution on nutrient agar; conditions: H11, nutrient agar, 37° C., 18 hours incubation, read-out: MIC
[23] = tested on: Escherichia coli JR66/W677; assay: as above
[24] = tested on: Bacillus cereus ATCC 10702; assay: as above; conditions: ATCC10702, nutrient agar, 37° C., 18 hours incubation, read-out: MIC
[25] = tested on: Salmonella enteritidis 1891; assay: as above; conditions: Salmonella enterica
[26] = tested on: Escherichia coli K-12 ML 1410 R81; assay: as above; conditions: 18 h
[27] = Pseudomonas aeruginosa, 99, 18 h

Structure (SMILES)	MIC [1]	MIC [2]	MIC [3]	MIC [5]	MIC [6]	MIC [8]	MIC [9]	MIC [10]	MIC [11]	MIC [12]	MIC [13]	MIC [14]	MIC [15]	MIC [16]	MIC [17]	MIC [18]	MIC [20]	MIC [21]	MIC [22]	MIC [24]	further results
C[C@H]1O[C@H](O[C@@H]2C[C@H](O[C@H]3O[C@H](CN)CC[C@H]3N)[C@@H](N)C[C@H]2NC(=O)[C@@H](O)CCN)[C@H](O)[C@@H](N)[C@@H]1O [AHB-tetradeoxyKMB, 1-N-[(S)-4-amino-2-hydroxybutyryl]-5,3',4',6"-tetradeoxykanamycin B]	6.25 µg/mL (≈ 12 µM)	3.13 µg/mL (≈ 6.01 µM)	0.78 µg/mL (≈ 1.5 µM)	3.13 µg/mL (≈ 6.01 µM)	< 0.2 µg/mL	0.78 µg/mL (≈ 1.5 µM)	100 µg/mL (≈ 192 µM)	0.39 µg/mL (≈ 0.749 µM)	0.78 µg/mL (≈ 1.5 µM)	25 µg/mL (≈ 48 µM)	25 µg/mL (≈ 48 µM)	1.56 µg/mL (≈ 3 µM)	25 µg/mL (≈ 48 µM)	0.78 µg/mL (≈ 1.5 µM)	0.39 µg/mL (≈ 0.749 µM)	0.78 µg/mL (≈ 1.5 µM)	< 0.2 µg/mL	< 0.2 µg/mL	12.5 µg/mL (≈ 24 µM)	0.39 µg/mL (≈ 0.749 µM)	MIC [4]: 0.78 µg/mL (≈ 1.5 µM); MIC ([7]; K12ML1410, 18 h): 1.56 µg/mL (≈ 3 µM); MIC ([19]; Pseudomonas aeruginosa, 99, nutrient agar, 37° C., 18 hours incubation, read-out: MIC): 6.25 µg/mL (≈ 12 µM); MIC ([23]; JR66/W677, 18 h): 1.56 µg/mL (≈ 3 µM); MIC ([25]; 18 h): 3.13 µg/mL (≈ 6.01 µM)
NCC[C@H](O)C(=O)N[C@@H]1C[C@H](N)[C@@H](O[C@H]2O[C@H](CN)CC[C@H]2N)C[C@H]1O[C@H]1O[C@H](CO)[C@@H](O)[C@H](N)[C@H]1O [AHB-trideoxyKMB, 1-N-[(S)-4-amino-2-hydroxybutyryl]-5,3',4'-trideoxykanamycin B]	6.25 µg/mL (≈ 11.6 µM)	3.13 µg/mL (≈ 5.83 µM)	0.78 µg/mL (≈ 1.45 µM)	3.13 µg/mL (≈ 5.83 µM)	< 0.2 µg/mL	0.78 µg/mL (≈ 1.45 µM)	100 µg/mL (≈ 186 µM)	0.39 µg/mL (≈ 0.727 µM)	0.39 µg/mL (≈ 0.727 µM)	12.5 µg/mL (≈ 23.3 µM)	12.5 µg/mL (≈ 23.3 µM)	3.13 µg/mL (≈ 5.83 µM)	25 µg/mL (≈ 46.6 µM)	0.39 µg/mL (≈ 0.727 µM)	0.78 µg/mL (≈ 1.45 µM)	0.39 µg/mL (≈ 0.727 µM)	< 0.2 µg/mL	< 0.2 µg/mL	6.25 µg/mL (≈ 11.6 µM)	0.78 µg/mL (≈ 1.45 µM)	MIC [4]: 0.39 µg/mL (≈ 0.727 µM); MIC ([7]; K12ML1410, nutrient agar, 37° C., 18 hours incubation, read-out: MIC): 1.56 µg/mL (≈ 2.91 µM); MIC [19, 27]: 3.13 µg/mL (≈ 5.83 µM); MIC ([23]; JR66/W677, nutrient agar, 37° C., 18 hours incubation, read-out: MIC): 1.56 µg/mL (≈ 2.91 µM); MIC ([25]; 18 h): 3.13 µg/mL (≈ 5.83 µM); MIC [26]: 1.56 µg/mL (≈ 2.91 µM)
CNC[C@@H]1CC[C@@H](N)[C@@H](O[C@H]2C[C@@H](O[C@H]3O[C@H](CO)[C@@H](O)[C@H](N)[C@H]3O)[C@H](NC(=O)[C@@H](O)CCN)C[C@@H]2N)O1 [AHB-trideoxyMKMB, 1-N-[(S)-4-amino-2-hydroxybutyryl]-5,3',4'-trideoxy-6'-N-methylkanamycin B]	12.5 µg/mL (≈ 22.7 µM)	1.56 µg/mL (≈ 2.83 µM)	0.78 µg/mL (≈ 1.42 µM)	1.56 µg/mL (≈ 2.83 µM)	< 0.2 µg/mL	0.78 µg/mL (≈ 1.42 µM)	25 µg/mL (≈ 45.4 µM)	< 0.2 µg/mL	0.39 µg/mL (≈ 0.708 µM)	6.25 µg/mL (≈ 11.4 µM)	6.25 µg/mL (≈ 11.4 µM)	1.56 µg/mL (≈ 2.83 µM)	1.56 µg/mL (≈ 2.83 µM)	< 0.2 µg/mL	0.78 µg/mL (≈ 1.42 µM)	0.39 µg/mL (≈ 0.708 µM)	< 0.2 µg/mL	< 0.2 µg/mL	12.5 µg/mL (≈ 22.7 µM)	0.39 µg/mL (≈ 0.708 µM)	MIC ([7]; K12ML1410, 18 h): 1.56 µg/mL (≈ 2.83 µM); MIC [19, 27]: 3.13 µg/mL (≈ 5.68 µM); MIC ([23]; JR66/W677, 18 h): 1.56 µg/mL (≈ 2.83 µM); MIC ([25]; nutrient agar, 37° C., 18 hours incubation, read-out: MIC): 0.78 µg/mL (≈ 1.42 µM); MIC [26]: 1.56 µg/mL (≈ 2.83 µM)

Source: US4410516A, “1-N(αHydroxy-ω-aminoalkanoyl) derivatives of 5,3',4'-trideoxy- or 5,3', 4'-trideoxy-6'-N- methyl- or 5, 3', 4',6"-tetradeoxykannamyci B and production thereof” (Zaidan Hojin Biseibutsu Kagaku Kenkyu Kai, priority 1981, dated 1983)
